According to PubChem BioAssay (NCI):
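1) Cells in 96-well plates. 2) Compound, 48 h, 5 concentrations. 3) Linear interpolation between surrounding doses. 4) Unreached endpoint = highest concentration. TGI: total growth inhibition.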

Tests used:
Assay in all cases: NCI tumour cell line growth inhibition, 48 h
786-0 renal = system: 786-0 renal
A498 renal = system: A498 renal
A549 NSCLC = system: A549 NSCLC
ACHN renal = system: ACHN renal
BT-549 breast = system: BT-549 breast
CAKI-1 renal = system: CAKI-1 renal
CCRF-CEM leukemia = system: CCRF-CEM leukemia
COLO 205 colon = system: COLO 205 colon
EKVX NSCLC = system: EKVX NSCLC
HCT-116 colon = system: HCT-116 colon
HCT-15 colon = system: HCT-15 colon
HL-60(TB) leukemia = system: HL-60(TB) leukemia
HOP-62 NSCLC = system: HOP-62 NSCLC
HOP-92 NSCLC = system: HOP-92 NSCLC
HS 578T breast = system: HS 578T breast
HT29 colon = system: HT29 colon
IGROV1 ovarian = system: IGROV1 ovarian
K-562 leukemia = system: K-562 leukemia
KM12 colon = system: KM12 colon
LOX IMVI melanoma = system: LOX IMVI melanoma
M14 melanoma = system: M14 melanoma
MALME-3M melanoma = system: MALME-3M melanoma
MCF7 breast = system: MCF7 breast
MDA-MB-231 breast = system: MDA-MB-231 breast
MDA-MB-435 = system: MDA-MB-435
MDA-N = system: MDA-N
MOLT-4 leukemia = system: MOLT-4 leukemia
NCI-H226 lung = system: NCI-H226 lung
NCI-H23 lung = system: NCI-H23 lung
NCI-H460 lung = system: NCI-H460 lung
NCI-H522 lung = system: NCI-H522 lung
NCI/ADR-RES ovarian = system: NCI/ADR-RES ovarian
OVCAR-3 ovarian = system: OVCAR-3 ovarian
OVCAR-4 ovarian = system: OVCAR-4 ovarian
OVCAR-5 ovarian = system: OVCAR-5 ovarian
OVCAR-8 ovarian = system: OVCAR-8 ovarian
PC-3 prostate = system: PC-3 prostate
RPMI-8226 leukemia = system: RPMI-8226 leukemia
RXF 393 renal = system: RXF 393 renal
SF-268 CNS = system: SF-268 CNS
SF-295 CNS = system: SF-295 CNS
SF-539 CNS = system: SF-539 CNS
SK-MEL-2 melanoma = system: SK-MEL-2 melanoma
SK-MEL-5 melanoma = system: SK-MEL-5 melanoma
SK-OV-3 ovarian = system: SK-OV-3 ovarian
SNB-19 CNS = system: SNB-19 CNS
SNB-75 CNS = system: SNB-75 CNS
SR leukemia = system: SR leukemia
SW-620 colon = system: SW-620 colon
T-47D breast = system: T-47D breast
TK-10 renal = system: TK-10 renal
U251 CNS = system: U251 CNS
UACC-257 melanoma = system: UACC-257 melanoma
UACC-62 melanoma = system: UACC-62 melanoma
UO-31 renal = system: UO-31 renal
DU-145 prostate = system: DU-145 prostate
HCC-2998 colon = system: HCC-2998 colon
SK-MEL-28 melanoma = system: SK-MEL-28 melanoma
SN12C renal = system: SN12C renal

Measured: TGI

Cc1ccc(S(=O)(=O)NC(CCC(=O)NN)C(=O)NN)cc1 (centres undefined)
21.6 µM: NCI-H460 lung
not listed: DU-145 prostate | HCC-2998 colon | SK-MEL-28 melanoma | SN12C renal
> 100 µM: all other assays above

CC1(C)CC(=O)C(Cc2ccccc2)(Cc2ccccc2)C(=O)C1
not listed: A498 renal | HOP-92 NSCLC | MDA-MB-435 | OVCAR-3 ovarian | RPMI-8226 leukemia
> 100 µM: all other assays above

COc1ccccc1N1C(=O)C2C3c4ccccc4C(OC(C)=O)(c4ccccc43)C2C1=O (centres undefined)
38.8 µM: SNB-75 CNS
52.1 µM: HS 578T breast
not listed: HOP-92 NSCLC | MDA-MB-435 | NCI-H522 lung | SK-MEL-2 melanoma
> 100 µM: all other assays above
